Earlier results as cited in patent publication US20140161820A1, “Short-Term Surrogate Test for Investigative Drugs” (priority 2012, published 2014).

Columns and labels:
platelets = conditions: in vivo
[1] = target: T1, cholesteryl ester transfer protein (CETP) (Homo sapiens, UniProt P11597); conditions: phase III, treatment group receiving a combination of atorvastatin (Lipitor) and torcetrapib
T1 construct: host or cells: human trial subjects (endogenous plasma CETP)
T1 sequence (P11597 18-493): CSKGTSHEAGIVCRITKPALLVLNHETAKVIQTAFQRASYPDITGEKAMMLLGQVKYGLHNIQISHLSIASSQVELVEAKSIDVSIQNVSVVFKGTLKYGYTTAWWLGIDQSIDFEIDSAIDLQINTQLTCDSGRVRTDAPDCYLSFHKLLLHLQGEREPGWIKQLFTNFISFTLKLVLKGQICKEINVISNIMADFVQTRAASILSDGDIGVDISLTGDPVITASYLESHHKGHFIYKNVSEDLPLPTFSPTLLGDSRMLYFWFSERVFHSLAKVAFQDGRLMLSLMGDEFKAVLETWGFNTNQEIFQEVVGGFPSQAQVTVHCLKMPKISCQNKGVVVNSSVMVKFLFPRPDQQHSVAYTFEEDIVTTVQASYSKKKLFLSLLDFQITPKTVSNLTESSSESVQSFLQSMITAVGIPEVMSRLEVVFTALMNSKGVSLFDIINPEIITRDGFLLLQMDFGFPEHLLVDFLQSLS

Q: With `CC(=O)Oc1ccccc1C(=O)O` [aspirin] as the compound, how does the “time by which anti-platelet effects are measurable” value (platelets) read?
A: ≤ 60 min

Q: Which all-cause mortality [1] does the source give for `CCOC(=O)N1c2ccc(C(F)(F)F)cc2[C@@H](N(Cc2cc(C(F)(F)F)cc(C(F)(F)F)c2)C(=O)OC)C[C@H]1CC` [torcetrapib] here?
A: excessive all-cause mortality
